Like-named read-outs stand apart in the source and are kept apart here.
System: adult mongrel dogs
Assay: Renal vasodilating activity in anesthetized dogs
Assay type: in vivo, mongrel dog
Details: Canis lupus familiaris
Method: Goldberg et al., J. Pharmacol. Exp. Ther., 163, 188 (1968), performed an investigation of the structural requirements for dopamine-like renal vasodilation of phenethylamines and apomorphine. The following procedure is a variation of the assay described in that report.
Adult mongrel dogs were anesthetized and surgically prepared for electromagnetic measurement of renal artery blood flow. A carotid artery was cannulated for measuring arterial blood pressure and drugs were administered intravenously or intraarterially (via the renal artery). Heart rate was monitored with a cardiotachometer. Renal vascular resistance was calculated as the ratio of mean arterial blood pressure to renal artery blood flow. Dopamine was infused intravenously at 3 μg/kg/min for ten minutes (at an infusion rate of about 1 ml/min) to determine responsiveness of each dog to renal dopamine receptor stimulation. Cumulative dose-response data were obtained by infusing a compound of this invention at progressively increasing (usually three-fold) infusion rates, each dose being infused for five minutes. The maximum percent change from pre-drug control in renal artery blood flow (or in renal vascular resistance) was determined for each infusion dose.
RBF, RVR, MABP, and HR values are percent changes in renal blood flow, renal vascular resistance, mean arterial blood pressure, and heart rate, respectively, relative to control values.

[1] = dose 6.2 mpk, relative to controls, read-out: HR: percent change in heart rate
[2] = dose 6.2 mpk, relative to controls, read-out: MABP: percent change in mean arterial blood pressure
[3] = dose 6.2 mpk, relative to controls, read-out: RBF: percent change in renal blood flow
[4] = dose 6.2 mpk, relative to controls, read-out: RVR: percent change in renal vascular resistance
[5] = read-out: HR: percent change in heart rate, dose 6.2 mpk, relative to controls
[6] = read-out: MABP: percent change in mean arterial blood pressure, dose 6.2 mpk, relative to controls
[7] = read-out: RBF: percent change in renal blood flow, dose 6.2 mpk, relative to controls
[8] = read-out: RVR: percent change in renal vascular resistance, dose 6.2 mpk, relative to controls
[9] = read-out: HR: percent change in heart rate, dose 1.2 mpk, relative to controls
[10] = read-out: MABP: percent change in mean arterial blood pressure, dose 1.2 mpk, relative to controls
[11] = read-out: RBF: percent change in renal blood flow, dose 1.2 mpk, relative to controls
[12] = read-out: RVR: percent change in renal vascular resistance, dose 1.2 mpk, relative to controls
[13] = dose 1.2 mpk, relative to controls, read-out: HR: percent change in heart rate
[14] = dose 1.2 mpk, relative to controls, read-out: MABP: percent change in mean arterial blood pressure
[15] = dose 1.2 mpk, relative to controls, read-out: RBF: percent change in renal blood flow
[16] = dose 1.2 mpk, relative to controls, read-out: RVR: percent change in renal vascular resistance

For `COc1cc2c(C)nc(OC(=O)N3CCN(C(=O)OC(C)(C)C)CC3)c([N+](=O)[O-])c2cc1OC` [Cmpd 68], the change in vivo at 0.3 mg/kg (read-out: HR: percent change in heart rate, dose 0.3 mpk, relative to controls) was 11%, the change in vivo at 0.3 mg/kg (read-out: MABP: percent change in mean arterial blood pressure, dose 0.3 mpk, relative to controls) was -1% and the change in vivo at 0.3 mg/kg (read-out: RBF: percent change in renal blood flow, dose 0.3 mpk, relative to controls) was 17%. The change in vivo at 0.3 mg/kg (read-out: RVR: percent change in renal vascular resistance, dose 0.3 mpk, relative to controls) was -13%.

`COc1cc2c(C)nc(OC(C)=O)c(N(C(C)=O)C(C)=O)c2cc1OC` [Cmpd 17, 4-N,N-Diacetamido-3-acetoxy-6,7-dimethoxy-1-methylisoquinoline] was tested, and the change in vivo at 6.2 mg/kg [1] was -12%, the change in vivo at 6.2 mg/kg [2] was 13% and the change in vivo at 6.2 mg/kg [3] was 63%. For the same compound, the change in vivo at 6.2 mg/kg [4] was -24%.

Work on `CCOc1cc2c(C)nc(OC(=O)N3CCN(C(=O)OC(C)(C)C)CC3)c([N+](=O)[O-])c2cc1OC` [Cmpd 69] yielded a change in vivo at 6.2 mg/kg [5] of 21%, a change in vivo at 6.2 mg/kg [6] of 6% and a change in vivo at 6.2 mg/kg [7] of 24%. The change in vivo at 6.2 mg/kg [8] was -14%.

`CCCCNC(=O)Nc1c(OC(=O)N2CCNCC2)nc(C)c2cc(OC)c(OC)cc12` [Cmpd 80] was tested, and the change in vivo at 1.2 mg/kg [9] was 2%, the change in vivo at 1.2 mg/kg [10] was 0% and the change in vivo at 1.2 mg/kg [11] was 25%. It also gave a change in vivo at 1.2 mg/kg [12] of -16%.

`CCOc1cc2c(C)nc(OC(=O)C(C)C)c([N+](=O)[O-])c2cc1OC` [Cmpd 5] showed a change in vivo at 6.2 mg/kg [1] of 36%, a change in vivo at 6.2 mg/kg [2] of -10% and a change in vivo at 6.2 mg/kg [3] of 42%. The change in vivo at 6.2 mg/kg [4] was -36%.

`CCCCNC(=O)Nc1c(OC(=O)N2CCCC2)nc(C)c2cc(OC)c(OC)cc12` [Cmpd 55] gave a change in vivo at 1.2 mg/kg [9] of 2%, a change in vivo at 1.2 mg/kg [10] of -4% and a change in vivo at 1.2 mg/kg [11] of 14%. For the same compound, the change in vivo at 1.2 mg/kg [12] was -14%.

`CCN(CC)C(=O)Oc1nc(C)c2cc(OC)c(OC)cc2c1NC(N)=O` [Cmpd 47, 3-Diethylcarbamyloxy-6,7-dimethoxy-1-methyl-4-ureidoisoquinoline] gave a change in vivo at 1.2 mg/kg [9] of -3%, a change in vivo at 1.2 mg/kg [10] of 11% and a change in vivo at 1.2 mg/kg [11] of 17%. The change in vivo at 1.2 mg/kg [12] was -4%.

`C=CCNC(=O)Nc1c(OC(=O)N(c2ccccc2)c2ccccc2)nc(C)c2cc(OC)c(OC)cc12` [Cmpd 60] was tested, and the change in vivo at 1.2 mg/kg [9] was 8%, the change in vivo at 1.2 mg/kg [10] was 4% and the change in vivo at 1.2 mg/kg [11] was 27%. For the same compound, the change in vivo at 1.2 mg/kg [12] was -17%.

With `COc1ccc(NC(=O)Nc2c(OC(C)=O)nc(C)c3cc(OC)c(OC)cc23)cc1` [Cmpd 32] the change in vivo at 1.2 mg/kg [13] was -23%, the change in vivo at 1.2 mg/kg [14] was 1% and the change in vivo at 1.2 mg/kg [15] was 6%. It also gave a change in vivo at 1.2 mg/kg [16] of -4%.

`CCOc1cc2c([N+](=O)[O-])c(OC(=O)N(C)C)nc(C)c2cc1OC` [Cmpd 24] was tested, and the change in vivo at 6.2 mg/kg [5] was 53%, the change in vivo at 6.2 mg/kg [6] was -12% and the change in vivo at 6.2 mg/kg [7] was 22%. The change in vivo at 6.2 mg/kg [8] was -28%.

`C=CCNC(=O)Nc1c(OS(=O)(=O)N(C)C)nc(C)c2cc(OC)c(OC)cc12` [Cmpd 65] showed a change in vivo at 1.2 mg/kg [13] of -7%, a change in vivo at 1.2 mg/kg [14] of -1% and a change in vivo at 1.2 mg/kg [15] of 25%. For the same compound, the change in vivo at 1.2 mg/kg [16] was -22%.

For `CCCCNC(=O)Nc1c(OC(=O)N(C(C)C)C(C)C)nc(C)c2cc(OC)c(OC)cc12` [Cmpd 61], the change in vivo at 1.2 mg/kg [9] was 11%, the change in vivo at 1.2 mg/kg [10] was -1% and the change in vivo at 1.2 mg/kg [11] was 47%. For the same compound, the change in vivo at 1.2 mg/kg [12] was -32%.

In the case of `COc1cc2c(C)nc(OCOC(=O)C(C)(C)C)c([N+](=O)[O-])c2cc1OC` [Cmpd 77], the change in vivo at 6.2 mg/kg [1] is reported as 5%, the change in vivo at 6.2 mg/kg [2] is reported as -3% and the change in vivo at 6.2 mg/kg [3] is reported as 7%. For the same compound, the change in vivo at 6.2 mg/kg [4] was -8%.

Work on `COc1cc2c(C)nc(OC(=O)N3CCCC3)c([N+](=O)[O-])c2cc1OC` [Cmpd 52] yielded a change in vivo at 6.2 mg/kg [5] of 0%, a change in vivo at 6.2 mg/kg [6] of -15% and a change in vivo at 6.2 mg/kg [7] of 41%. The change in vivo at 6.2 mg/kg [8] was -37%.

`COc1cc2c(C)nc(OS(C)(=O)=O)c([N+](=O)[O-])c2cc1OC` [Cmpd 16] gave a change in vivo at 6.2 mg/kg [1] of 19%, a change in vivo at 6.2 mg/kg [2] of -6% and a change in vivo at 6.2 mg/kg [3] of 12%. The change in vivo at 6.2 mg/kg [4] was -16%.

With `C=CCNC(=O)Nc1c(OC(=O)N2CCN(C(=O)OC(C)(C)C)CC2)nc(C)c2cc(OC)c(OC)cc12` [Cmpd 75] the change in vivo at 1.2 mg/kg [9] was 12%, the change in vivo at 1.2 mg/kg [10] was 9% and the change in vivo at 1.2 mg/kg [11] was 27%. For the same compound, the change in vivo at 1.2 mg/kg [12] was -15%.
